Key:
HeLa cells [1] = assay: Cell viability assay (MTT), HeLa cells; format: cell-based
Protocol: (§1) Cells in exponential growth phase were seeded in a 96 well plate at a concentration of 50,000 cell/well. The cells were allowed to attach to the wells for 24 h at 37° C., 5% CO2, then the culture medium was removed and 100 μL new culture medium containing 1 at gradient concentrations was placed into each well. After culturing at 37° C., 5% CO2 for desired time, each well was added by 10 μL of 5 mg/mL MTT 43-(4,5-Dimethylthiazol-2-yl)-2,5-diphenyltetrazolium bromide), and the plated cells were incubate at dark for 4 h. 100 μL 10% SDS with 0.01 M HCl was added to each well to stop the reduction reaction and to dissolve the purple. After incubation of the cells at 37° C. for overnight, the viability is measured. Data represent the mean±standard deviation of three independent experiments.
(§2) The estimation of the threshold concentration of aggregation (320-340 μM) for 1 allows us to examine the cytotoxicity of 1 in monomer and molecular aggregate forms. We first tested the cytotoxicity of 1 towards HeLa cells, the most widely studied cancer cell line, below and above the threshold concentration.

U87MG = assay: Cell viability assay (MTT), U87MG; format: cell-based
Protocol: as §1, §2

[2] = Cell viability assay (MTT), PC12 neuronal cell line; format: cell-based; conditions: rat, PC12 cells; 400 and 500 μM, 7 days
Protocol: (§3) FIG. 10 depicts the long term cytotoxicity of 1 on PC12 cells. Related to FIG. 2. (a) MTT viability test of cell incubated with gradient concentration of 1 for up to 7 days without changing medium. Data are presented as mean±SD of three independent experiments. (b) Intracellular concentration of 1 in PC12 cells treated with 1 for 12 h at 37° C. measured by LC-MS (left bar=400 μM; right bar=300 μM). (c) Cells were subcultured and re-seeded with new medium containing the same concentration of 1 (0 for control group and 400 μM for test group) every 4 days. Data are presented as mean±SD of three independent experiments.
as §1, §2

PC12 = assay: as above; format: cell-based
Protocol: as §3, §1, §2

HeLa cells [3] = assay: FITC annexin V / PI staining of HeLa cells; format: cell-based; conditions: 400 μM, 36 h
Source text: To determine the process of cell death induced by the aggregates of 1, we used FITC conjugated annexin V and propidium iodide (PI) to stain the cells (FIG. 3b). Being membrane impermeable, PI discriminates viable cells from late apoptotic or necrotic cells, and FITC conjugated annexin V binds to plasma membrane of apoptotic and necrotic cells as the former ones have extracellular exposed phosphatidylserine and the latter ones lose membrane integrity.

HeLa cells [4] = assay: Cell migration assay of HeLa cells; format: cell-based; conditions: 18 h
Protocol: FIG. 3 depicts the response of cancer cells toward molecular aggregates of 1. (a) Intracellular concentration of 1 in HeLa cells treated with 1 for 12 h at different temperatures measure by LC-MS (left bar=37° C.; right bar=4° C.). (b) Confocal images of FITC annexin V and PI stained HeLa cells without incubation with 1 (live cells), HeLa cells treated with 400 μM of 1 for 36 h, and necrotic HeLa cells (induced by DMSO). Scale bar=20 μm. (c) Fluorescence emission of 7-AAD and 1 in cell lysate (15,000 cell/mL) at λex=488 nm. (d) Cell cycle analysis, by flow cytometry, of HeLa cells treated with 0, 300 or 400 μM of 1 for 24 h. Depletion of G2/M phase occurs in cells treated with 400 μM of 1. (e) Cell migration assay of HeLa cells treated with 0, 300, 400 or 500 μM of 1. The gaps were created on the HeLa cells of 100% confluence in 24 well plates, and measured after incubation for 18 h.
Because apoptosis associates with cell cycle, we examined the effect of the aggregates of 1 on the cell cycle. […] The cell-cycle distribution of the HeLa cells incubated with 400 μM of 1 indicates significant decrease of the peaks of S phase and G2/M phase. […] The slight right shift of the whole spectra results from the overlapping of emission of 7-AAD and 1 (FIG. 3c). But such shift barely hampers the distribution of cell-cycle of the spectra. The aggregates of 1 also delay the migration of the HeLa cells.

actin = target: T1, actin (Homo sapiens, UniProt P60709); assay: Hydrogel based protein pull-down assay, actin; format: binding; conditions: hydrogel 10 mM, HeLa cell lysate, Western blot
T1 construct: snap freeze and thaw for 3 cycles to lyse the cells; endogenous in cells; host or cells: HeLa cell lysate
Protocol: 4×10^7 of HeLa cells were scrapped from petri dish and washed with PBS buffer for 3 times then centrifuged at 300 g for 5 minutes. The collected cell pellet was mixed with phosphate buffer (100 mM) then snap freeze and thaw for 3 cycles to lyse the cells. The cell lysate was clarified by centrifugation at 12,000 g for 20 min at 4° C. to remove the whole cells, nuclei and large mitochondria. 50 μL of the supernatant lysate was gently mixed with 30 μL hydrogel of 1 (10 mM in PBS buffer, pH 7.6) on rotator at RT for 30 min. The hydrogel was collected by centrifugation (12,000 g, 5 min, 4° C.) and the supernatant was collected and placed on ice before analysis. The hydrogel was washed three times by gently mixing with 50 μL of the washing buffer (50 mM phosphate buffer pH 7.6 supplemented with 150 mM NaCl) on rotator at RT for 10 min followed by separation on centrifuge (12,000 g, 5 min, 4° C.). Supernatants were collected and placed on ice before analysis. Finally, the remaining hydrogel was dissolved using 1:1 washing buffer and 5× Laemeli buffer. All other samples were mixed with 5× Laemeli buffer (final concentration 2×) before SDS-PAGE.
That 1 enters the cells to affect cell cycle, cell migration, and eventually cell viability implies the interactions between the aggregates of 1 and certain intracellular proteins. […]

Compound: O=C(Cc1ccc2ccccc2c1)N[C@@H](Cc1ccccc1)C(=O)N[C@@H](Cc1ccccc1)C(=O)O [Compound 1]
- concentration at which molecular aggregates exhibit cytotoxicity (HeLa cells [1]): 400 µM
- concentration at which molecular aggregates exhibit cytotoxicity, weight/volume (HeLa cells [1]; 400 μM converted): about 0.19 mg/mL
- cytotoxicity towards HeLa cells (HeLa cells [1]; 200 and 300 μM, below threshold concentration): little cytotoxicity
- cell death of HeLa cells, extended assay (HeLa cells [1]; 200 or 300 μM, 72 h): hardly results in significant cell death
- time dependent viability of HeLa cells (HeLa cells [1]; 400 and 500 μM): little loss of cell viability until after 38 h
- cytotoxicity towards HeLa cells after removal of aggregates (HeLa cells [1]; 400 and 500 μM, medium passed through 0.22 μm PVDF filter): largely alleviates the cytotoxicity
- viability of the HeLa cells (HeLa cells [1]; 400 and 500 μM, within 48 h, as prepared medium): less than 20%
- cytotoxicity towards U87MG (U87MG): decreases of cell viabilities only observed at 400 and 500 μM
- viability at 7 days [2]: > 60%
- viability of PC12 cells, constant supply of 1 (PC12; 400 μM, after 7 days, re-seeded with new medium every 4 days): significant loss of cell viability
- toxicity towards PC12 (PC12; 400 and 500 μM): little toxicity
- process of cell death (HeLa cells [3]): induce apoptosis
- gap coverage by migrating cells (HeLa cells [4]; 300 μM): 47 % of the gaps
- gap coverage by migrating cells (HeLa cells [4]; 400 or 500 μM): 27 % of the gaps
- binding of actin to the aggregates of 1 (actin): low binding affinity

— patent US10308682B2, “Inhibition of tumor growth with aggregates of small molecules” (BRANDEIS UNIVERSITY, priority 2013, dated 2019)
